Test results published in patent US20240120053A1, “5-HT RECEPTOR AGONIST TITRATION” (Diamond Therapeutics Inc., priority 2021, published 2024).
Entries after “also recorded” stand apart in the source; their conditions may differ.

Tests used:
[1] = test system: out-bred Long Evans rats; experiment: 5-choice serial reaction time task (5CSRTT), standard conditions, 5 s ITI; assay type: in vivo
Procedure: (§1) Experiments were conducted to test psilocybin doses in the range of 0.05-0.2 mg/kg psilocybin administered S.C. across progressive ratio (PR) and 5-choice serial reaction time task (5CSRTT) to examine the effect of psilocybin on endophenotypes of motivation and attention. In each study, a population of out-bred Long Evans rats was first tested as a group for response to the PR and 5CSRTT. Each group was then divided into sub-groups by tertiles according to performance, and then exposed to various dose levels immediately prior to re-testing at various psilocybin dose levels.
(§2) The 5CSRTT involves evaluating test subject response to a brief visual stimulus (Higgins, Guy & Silenieks, Leonardo. (2017). Rodent Test of Attention and Impulsivity: The 5-Choice Serial Reaction Time Task: The 5-Choice Serial Reaction Time Task. 10.1002/cpph.27). Animals are trained to make a nose-poke response to a stimulus location in order to collect a food reward. The task allows the experimenter to measure animal performance in multiple domains including: • Attention • Impulsivity • Perseveration • Speed of response
(§3) A strength of the test is its flexible configuration to challenge test subjects: • Standard test conditions (0.75s stimulus duration (SD), 5s inter-trial interval (ITI), 100 trials) • Multiple short stimulus duration (mSD) (0.03-1s SD) • Fixed long ITI (5 s vs. 10 s ITI) • Multiple ultrashort ITI (2-5s ITI) • Extended 250 trials
Asterisk (*) indicates statistical significance vs. vehicle. (FIG. 23A).
When this population is segmented into tertiles according to performance based on accuracy (% correct, calculated as #correct/(#correct+#incorrect)*100), the lowest performing tertile (N=8) are considered to be low attentive and potentially representative of a low attentive endophenotype of depression (FIG. 26A). Low attentive rats also score poorly on % hit (FIG. 26B) and have a slower response speed (FIG. 26D). […] Asterisk (*) indicates statistical significance vs. vehicle. […] Using a longer duration between stimulus and reward, the 5CSRTT study measures premature (PREM) and perseverant (PSV) responses. PREM/PSV responses were increased by increasing the ITI from 5s (baseline) to 10s (test condition). […] Both PREM and PSV behaviors are examples of executive cognitive function, likely involving areas of the prefrontal cortex, a brain region rich in 5-HT2A receptors.

[2] = test system: mice; experiment: Mismatch Negativity (MMN) EEG test, ascending dose protocol; assay type: in vivo; conditions: ascending low, medium, high dose, frontal cortex EEG recording (FIG. 6A, 6B)
Procedure: (§4) Fourteen mice with a history of testing with scopolamine and memantine, containing implanted with a frontal screw for MMN measurement (in mm: AP 1.5; ML 0.5) and an auditory screw for ASSR measurement (in mm: AP −2.8; ML 4.2), are administered an ascending dose of psilocybin. As the mice have been tested with the MMN-ASSR protocol, they are not further habituated prior to psilocybin testing. The ascending dose protocol is summarized below and in FIG. 1: • Week 1: Day 1: Saline, Day 2: Vehicle • Week 2: Day 1:Saline, Day 2: Low Dose • Week 3: Day 1: Saline, Day 2: Medium Dose • Week 4: Day 1: Saline, Day 2: High Dose
Each animal is administered the same compound and dose each day (e.g., saline on day 1, vehicle or compound on day 2). […]
(§5) The ongoing behavior (e.g., speed, total number of grooming bouts, elongation factor, distance traveled, head bobbing, etc.) of each mouse is assessed over each daily recording session (e.g., see FIG. 3). […] The amplitude of the standard and deviant waveforms are also calculated. […] The ASSR is recorded as the average amplitude of both Evoked Power and Phase Locking Factor at each frequency (20 Hz, 30 Hz, 40 Hz, and 8 Hz) for control (saline) and compound (psilocybin). The difference between the control and compound recording for Evoked Power (e.g., see FIG. 4A and FIG. 4B) and Phase Locking Factor (e.g., see FIG. 5A and FIG. 5B) is determined. […]

[3] = test system: out-bred Long Evans rats; experiment: 5CSRTT with long 10 s ITI, premature (PREM) and perseverative (PSV) responses; assay type: in vivo; conditions: 24 rats, 0.05 mg/kg S.C., p=0.05, t-test
Excerpt: as §2, §3
When this population is segmented into tertiles according to performance based on accuracy (% correct, calculated as #correct/(#correct+#incorrect)*100), the lowest performing tertile (N=8) are considered to be low attentive and potentially representative of a low attentive endophenotype of depression (FIG. 26A). Low attentive rats also score poorly on % hit (FIG. 26B) and have a slower response speed (FIG. 26D). […] Asterisk (*) indicates statistical significance vs. vehicle. […]

[4] = cited from earlier work
[5] = test system: mice; experiment: Ongoing spectral power (qEEG, power spectral density) over daily recording sessions; assay type: in vivo; conditions: ascending low, medium, high dose (FIG. 7A-8B)
Procedure: as §4
In particular, on Day 1, animals are subcutaneously administered saline at t=−15 minutes prior to recording start. […]
as §5

[6] = test system: out-bred Long Evans rats; experiment: Progressive ratio (PR) test of motivation; assay type: in vivo
Procedure: as §1
The PR test is used to answer how willing the test subject is to work for food (i.e. test of motivation). A single 45 mg food pellet (i.e. reinforcer) is made available to the test animal based on lever press response. To obtain each successive pellet, the animal must make increasingly more lever presses. Typically, a progression of 2, 4, 6, 9, 12, 15, 20, 25, 32, 40, 50, 62, 77, 95, 118, etc. is used, derived from the equation:
ratio=[5×e^(0.2×reinforcer#)−5]
At some point, the animal gives up as the motor demands to obtain a single pellet are not deemed worthwhile (i.e. animal reaches“break point” defined as animal's failure to earn a food pellet in 20 minutes).
Rats were then sub-grouped into tertiles based on the number of lever presses for food at baseline, so that within the test population of 36 animals, 12 animals were identified as low responders, characterized by low motivation and potentially corresponding to low motivation endophenotype representative of clinical depression. Twelve animals were identified as high responders. There was a statistically significant difference between the high and low responders. […] This represents a motivational enhancing effect of psilocybin in the cohort corresponding to a low motivation endophenotype representative of clinical depression.

[7] = Blood plasma levels of psilocin over time in rats dosed with psilocybin; assay type: in vivo; conditions: psilocybin 0.05 mg/kg, after 30 mins
[8] = 24 rats, standard conditions, 5 s ITI

Structure (SMILES): CN(C)CCc1c[nH]c2cccc(OP(=O)(O)O)c12 [psilocybin, 4-phosphoryloxy-N,N-dimethyltryptamine]
- pro-cognitive effect measured as % hit ([1]; 24 rats, 0.05 mg/kg S.C., 75s SD, 5S ITI, 100 trials, vs. vehicle): increased (p=0.05, t-test) pro-cognitive effect
- procognitive effect measured as % correct ([1]; 24 rats, 0.05 mg/kg S.C., standard conditions, 5 s ITI): slight non-significant increase
- performance: response speed, number of trials completed [1, 8]: no effect on response speed, or number of trials completed
- premature or perseverative responses [1, 8]: no effect on premature or perseverative responses
- detrimental effects on performance (motivation, motor control, attention, response speed) ([1]; PR and 5CSRTT studies together, 0.05-0.2 mg/kg (PR), 0.05-0.1 mg/kg S.C. (5CSRTT)): no detrimental effects
- response speed ([1]; low attentive cohort, 0.05 mg/kg, vs. vehicle, 0.05 mg/kg): increased response speed; also recorded: Significant improvements
- effect on accuracy (% correct and % hit) ([1]; low attentive subgroup (lowest tertile, N=8), 0.05 and 0.1 mg/kg, vs. vehicle): strongly evident; also recorded: Significant improvements
- MMN: difference between the standard tone waveform and the deviant tone waveform [2]: larger difference between the standard tone waveform and the deviant form waveform with higher doses
- PREM and PSV responses [3]: increase
- doses at which about half of the subjects experience some negative emotions or acute psychological distress ([4]; human subjects): ≥ 30 mg
- doses at which the majority of side effects reported in the literature have occurred ([4]; human subjects, equals 0.30-0.45 mg/kg): 20 to 30 mg
- threshold dose where mild hallucinogenic activity begins to occur in about half of the subjects ([4]; human subjects, reported in the literature): 10 mg
- onset of physical symptoms (dizziness, nausea, vomiting, headaches, increased pulse and blood pressure etc.) ([4]; people, after taking the drug): 20 to 30 min
- duration of physical symptoms (dizziness, nausea, vomiting, headaches, increased pulse and blood pressure etc.) ([4]; people): up to 6 hours
- duration of psychedelic symptoms (distorted perception, mood changes) ([4]; people, higher doses, most find symptoms gone by 6 hours after ingestion): up to 12 hours
- general brain activity (ongoing spectral power, average PSD) [5]: higher dose corresponds with a decrease in general brain activity
- number of lever presses or break points (rewards earned) ([6]; entire study population of 36 rats, 0.05, 0.1 and 0.2 mg/kg S.C.): None of these doses were observed to cause obvious changes
- response in PR test ([6]; high responder subgroup (12 rats), 0.05-0.2 mg/kg S.C.): no effect on response
- food responding (lever presses, break point) in PR test ([6]; low responder subgroup (12 rats), 0.05 mg/kg S.C., 0.05 mg/kg): an increase in food responding; also recorded: Significant improvements
- food responding in PR test ([6]; low responder subgroup (12 rats), 0.1 mg/kg S.C.): did not produce an increase in food responding
- Cmax psilocin [7]: 6+2 ng/ml
